Results published in article PMC5907623 (Cancer Chemotherapy and Pharmacology, 2018).

What was measured:
[1] = Part A: safety and tolerability (adverse events, CTCAE v4.0) of AZD5363 tablet and capsule; type: in vivo, human
Method: PK parameters were assessed on the fourth day of Week 1 and Week 2 (i.e. on Day 4 and Day 11). […] Any AE occurring after the first dose of study treatment and up to 28 days after the last dose of study treatment was included in the AE summaries. The safety analysis set comprised all patients who received at least one dose of AZD5363. All safety data are presented descriptively.

[2] = Part A: steady-state PK of AZD5363 tablet versus capsule, partially fasted, in patients with advanced solid malignancies; type: in vivo, human
Method: PK parameters were assessed on the fourth day of Week 1 and Week 2 (i.e. on Day 4 and Day 11). […] In addition, pre-dose samples were drawn on Day 8 in Part B to verify that a washout period of 3.5 days was adequate for AZD5363. […] Following the addition of internal standard ([^13C6]AZ12886380), calibration, quality control (QC) and study samples (25 µL) were processed by solid-phase extraction then assayed for AZD5363 by liquid chromatography–tandem mass spectrometry. […] All trial samples were analysed within the known stability period for AZD5363 and all a priori assay acceptance criteria were met, in accordance with regulatory guidance. […] PK parameters were derived using non-compartmental methods (Phoenix® WinNonlin®). Plasma concentration–time profiles were analysed to determine Cmax, Cmin and tmax, while AUCτ was determined from application of the linear-up/log-down trapezoidal rule. […] The statistical analysis for estimating the food and capsule effect was based on analysing log-transformed PK parameters AUCτ and Cmax using a fixed-effects model with terms for patient and treatment only. […] Other PK parameters are presented descriptively.

[3] = Part B: safety and tolerability (adverse events, CTCAE v4.0) of AZD5363 tablet, fasted versus fed; type: in vivo, human; conditions: for Abdominal pain, All / Abdominal pain, Grade ≥ 3 / Anaemia, All / Anaemia, Grade ≥ 3 / Any AE (causally related), All / Any AE (causally related), Grade ≥ 3 / Any AE (irrespective of causality), All / Any AE (irrespective of causality), Grade ≥ 3 / Diarrhoea, All / Diarrhoea, Grade ≥ 3 / Hyperglycaemia, All / Hyperglycaemia, Grade ≥ 3 / Hypokalaemia, All / Hypokalaemia, Grade ≥ 3 / Pneumonia, All / Pneumonia, Grade ≥ 3 / Rash macular, All / Rash macular, Grade ≥ 3 / Rash maculopapular, All / Rash maculopapular, Grade ≥ 3 / Rash papular, All / Rash papular, Grade ≥ 3 / Skin discolouration, All / Skin discolouration, Grade ≥ 3: tablet
Method: (§1) Patients had been fasting overnight prior to the breakfast and no further food was permitted for 4 h post-dose.
Safety assessments throughout the study encompassed the incidence and severity of AEs (graded according to Common Terminology Criteria for Adverse Events [CTCAE] version 4.0), in addition to laboratory parameters (haematology, clinical chemistry, urinalysis), physical examination, 12-lead electrocardiography (ECG), and vital signs. To assess safety in the fed versus fasted state, the period during and just after the fasted day was considered relevant to the fasted dose (Days 4–7), and similarly, the fed day and subsequent days were considered relevant to the fed state (Days 11–14). Any AE occurring after the first dose of study treatment and up to 28 days after the last dose of study treatment was included in the AE summaries.
The safety analysis set comprised all patients who received at least one dose of AZD5363. All safety data are presented descriptively.

[4] = Part B: effect of food (overnight fast versus standardized meal) on steady-state PK of AZD5363 tablet in patients; type: in vivo, human; conditions: for AUCτ, Gmean (CV%) / Cmax, Gmean (CV%) / Cmin, Gmean (CV%) / tmax, median (range): tablet 480 mg bid, steady state, N = 9
Method: as §1
The bioanalytical method used to generate AZD5363 plasma concentration data for the derivation of PK parameters for the study had been previously validated, according to regulatory guidance, by Covance UK Ltd on behalf of AstraZeneca. Following the addition of internal standard ([^13C6]AZ12886380), calibration, quality control (QC) and study samples (25 µL) were processed by solid-phase extraction then assayed for AZD5363 by liquid chromatography–tandem mass spectrometry. […] All trial samples were analysed within the known stability period for AZD5363 and all a priori assay acceptance criteria were met, in accordance with regulatory guidance.
PK parameters were derived using non-compartmental methods (Phoenix® WinNonlin®). Plasma concentration–time profiles were analysed to determine Cmax, Cmin and tmax, while AUCτ was determined from application of the linear-up/log-down trapezoidal rule.
The statistical analysis for estimating the food and capsule effect was based on analysing log-transformed PK parameters AUCτ and Cmax using a fixed-effects model with terms for patient and treatment only. All statistical calculations and analyses were performed with SAS® software, version 9.1.3 or higher. Other PK parameters are presented descriptively.

[5] = design: method as in PMID 29066505; conditions: cited from earlier work
[6] = Day 15 onward, partially fasted, N = 12
[7] = Day 11, fed (standardized meal)
[8] = tablet, N = 9, 90% CI where printed in brackets

4-amino-N-[(1S)-1-(4-chlorophenyl)-3-hydroxypropyl]-1-(7H-pyrrolo[2,3-d]pyrimidin-4-yl)piperidine-4-carboxamide [AZD5363]
Changes in ECG findings, vital signs or physical examinations [1]: no clinically significant changes | Patients with serious AEs (SAEs) ([1]; 7 of 18 patients, in two the events occurred before start of treatment): 38.9% | Plasma glucose (with plasma insulin and C-peptide) ([1]; majority of patients, similar for tablet and capsule): Elevations in plasma glucose | Intra-patient variability for AUCτ ([2]; Part A, estimated): 20% | Intra-patient variability for Cmax ([2]; Part A, estimated): 22% | Intra-subject variability in AUCτ and Cmax ([2]; Parts A and B): around 20 % CV | Number of SAEs ([3]; in six patients of 12): 11 | Abdominal pain, All [3, 6]: 1 (8.3) Number of patients (%) | Abdominal pain, Grade ≥ 3 [3, 6]: 1 (8.3) Number of patients (%) | Anaemia, All [3, 6]: 1 (8.3) Number of patients (%) | Anaemia, Grade ≥ 3 [3, 6]: 1 (8.3) Number of patients (%) | Any AE (causally related), All [3, 6]: 10 (83.3) Number of patients (%) | Any AE (causally related), Grade ≥ 3 [3, 6]: 5 (41.7) Number of patients (%) | Any AE (irrespective of causality), All [3, 6]: 12 (100.0) Number of patients (%) | Any AE (irrespective of causality), Grade ≥ 3 [3, 6]: 7 (58.3) Number of patients (%) | Diarrhoea, All [3, 6]: 8 (66.7) Number of patients (%) | Diarrhoea, Grade ≥ 3 [3, 6]: 1 (8.3) Number of patients (%) | Hyperglycaemia, All [3, 6]: 6 (50.0) Number of patients (%) | Hyperglycaemia, Grade ≥ 3 [3, 6]: 5 (41.7) Number of patients (%) | Hypokalaemia, All [3, 6]: 1 (8.3) Number of patients (%) | Hypokalaemia, Grade ≥ 3 [3, 6]: 1 (8.3) Number of patients (%) | Pneumonia, All [3, 6]: 1 (8.3) Number of patients (%) | Pneumonia, Grade ≥ 3 [3, 6]: 1 (8.3) Number of patients (%) | Rash macular, All [3, 6]: 1 (8.3) Number of patients (%) | Rash macular, Grade ≥ 3 [3, 6]: 0 Number of patients (%) | Rash maculopapular, All [3, 6]: 2 (16.7) Number of patients (%) | Rash maculopapular, Grade ≥ 3 [3, 6]: 2 (16.7) Number of patients (%) | Rash papular, All [3, 6]: 0 Number of patients (%) | Rash papular, Grade ≥ 3 [3, 6]: 0 Number of patients (%) | Skin discolouration, All [3, 6]: 1 (8.3) Number of patients (%) | Skin discolouration, Grade ≥ 3 [3, 6]: 1 (8.3) Number of patients (%) | Abdominal pain, All ([3]; Days 4–7, fasted dose, N = 12): 0 Number of patients (%) | Abdominal pain, Grade ≥ 3 ([3]; Days 4–7, fasted dose, N = 12): 0 Number of patients (%) | Anaemia, All ([3]; Days 4–7, fasted dose, N = 12): 1 (8.3) Number of patients (%) | Anaemia, Grade ≥ 3 ([3]; Days 4–7, fasted dose, N = 12): 0 Number of patients (%) | Any AE (causally related), All ([3]; Days 4–7, fasted dose, N = 12): 4 (33.3) Number of patients (%) | Any AE (causally related), Grade ≥ 3 ([3]; Days 4–7, fasted dose, N = 12): 2 (16.7) Number of patients (%) | Any AE (irrespective of causality), All ([3]; Days 4–7, fasted dose, N = 12): 5 (41.7) Number of patients (%) | Any AE (irrespective of causality), Grade ≥ 3 ([3]; Days 4–7, fasted dose, N = 12): 2 (16.7) Number of patients (%) | Diarrhoea, All ([3]; Days 4–7, fasted dose, N = 12): 2 (16.7) Number of patients (%) | Diarrhoea, Grade ≥ 3 ([3]; Days 4–7, fasted dose, N = 12): 1 (8.3) Number of patients (%) | Hyperglycaemia, All ([3]; Days 4–7, fasted dose, N = 12): 1 (8.3) Number of patients (%) | Hyperglycaemia, Grade ≥ 3 ([3]; Days 4–7, fasted dose, N = 12): 1 (8.3) Number of patients (%) | Hypokalaemia, All ([3]; Days 4–7, fasted dose, N = 12): 0 Number of patients (%) | Hypokalaemia, Grade ≥ 3 ([3]; Days 4–7, fasted dose, N = 12): 0 Number of patients (%) | Pneumonia, All ([3]; Days 4–7, fasted dose, N = 12): 0 Number of patients (%) | Pneumonia, Grade ≥ 3 ([3]; Days 4–7, fasted dose, N = 12): 0 Number of patients (%) | Rash macular, All ([3]; Days 4–7, fasted dose, N = 12): 0 Number of patients (%) | Rash macular, Grade ≥ 3 ([3]; Days 4–7, fasted dose, N = 12): 0 Number of patients (%) | Rash maculopapular, All ([3]; Days 4–7, fasted dose, N = 12): 1 (8.3) Number of patients (%) | Rash maculopapular, Grade ≥ 3 ([3]; Days 4–7, fasted dose, N = 12): 0 Number of patients (%) | Rash papular, All ([3]; Days 4–7, fasted dose, N = 12): 0 Number of patients (%) | Rash papular, Grade ≥ 3 ([3]; Days 4–7, fasted dose, N = 12): 0 Number of patients (%) | Skin discolouration, All ([3]; Days 4–7, fasted dose, N = 12): 0 Number of patients (%) | Skin discolouration, Grade ≥ 3 ([3]; Days 4–7, fasted dose, N = 12): 0 Number of patients (%) | Abdominal pain, All ([3]; Days 11–14, fed dose, N = 10): 0 Number of patients (%) | Abdominal pain, Grade ≥ 3 ([3]; Days 11–14, fed dose, N = 10): 0 Number of patients (%) | Anaemia, All ([3]; Days 11–14, fed dose, N = 10): 1 (10.0) Number of patients (%) | Anaemia, Grade ≥ 3 ([3]; Days 11–14, fed dose, N = 10): 0 Number of patients (%) | Any AE (causally related), All ([3]; Days 11–14, fed dose, N = 10): 5 (50.0) Number of patients (%) | Any AE (causally related), Grade ≥ 3 ([3]; Days 11–14, fed dose, N = 10): 4 (40.0) Number of patients (%) | Any AE (irrespective of causality), All ([3]; Days 11–14, fed dose, N = 10): 6 (60.0) Number of patients (%) | Any AE (irrespective of causality), Grade ≥ 3 ([3]; Days 11–14, fed dose, N = 10): 4 (40.0) Number of patients (%) | Diarrhoea, All ([3]; Days 11–14, fed dose, N = 10): 3 (30.0) Number of patients (%) | Diarrhoea, Grade ≥ 3 ([3]; Days 11–14, fed dose, N = 10): 2 (20.0) Number of patients (%) | Hyperglycaemia, All ([3]; Days 11–14, fed dose, N = 10): 1 (10.0) Number of patients (%) | Hyperglycaemia, Grade ≥ 3 ([3]; Days 11–14, fed dose, N = 10): 1 (10.0) Number of patients (%) | Hypokalaemia, All ([3]; Days 11–14, fed dose, N = 10): 0 Number of patients (%) | Hypokalaemia, Grade ≥ 3 ([3]; Days 11–14, fed dose, N = 10): 0 Number of patients (%) | Pneumonia, All ([3]; Days 11–14, fed dose, N = 10): 0 Number of patients (%) | Pneumonia, Grade ≥ 3 ([3]; Days 11–14, fed dose, N = 10): 0 Number of patients (%) | Rash macular, All ([3]; Days 11–14, fed dose, N = 10): 1 (10.0) Number of patients (%) | Rash macular, Grade ≥ 3 ([3]; Days 11–14, fed dose, N = 10): 1 (10.0) Number of patients (%) | Rash maculopapular, All ([3]; Days 11–14, fed dose, N = 10): 2 (20.0) Number of patients (%) | Rash maculopapular, Grade ≥ 3 ([3]; Days 11–14, fed dose, N = 10): 2 (20.0) Number of patients (%) | Rash papular, All ([3]; Days 11–14, fed dose, N = 10): 1 (10.0) Number of patients (%) | Rash papular, Grade ≥ 3 ([3]; Days 11–14, fed dose, N = 10): 1 (10.0) Number of patients (%) | Skin discolouration, All ([3]; Days 11–14, fed dose, N = 10): 0 Number of patients (%) | Skin discolouration, Grade ≥ 3 ([3]; Days 11–14, fed dose, N = 10): 0 Number of patients (%) | Plasma glucose during the fasted period ([3]; up to 4 h post-dose): no indication of glucose elevation | Pre-dose plasma concentration, geometric least-squares mean ([4]; Day 8, 3 days after the last dose on Day 4): 3.34 ng/mL | Average steady-state concentration over the 12-h dosing interval (geometric mean AUCτ/12) ([4]; Day 11): 678 ng/mL | AUCτ, Gmean (CV%) ([4]; Day 4, overnight fasted): 9116 (16.8) h ng/mL | Cmax, Gmean (CV%) ([4]; Day 4, overnight fasted): 1842 (31.1) ng/mL | Cmin, Gmean (CV%) ([4]; Day 4, overnight fasted): 218.5 (30.3) ng/mL | tmax, median (range) ([4]; Day 4, overnight fasted): 0.6 (0.5–4) h | AUCτ, Gmean (CV%) [4, 7]: 8136 (33.9) h ng/mL | Cmax, Gmean (CV%) [4, 7]: 1239 (23.3) ng/mL | Cmin, Gmean (CV%) [4, 7]: 262.3 (58.6) ng/mL | tmax, median (range) [4, 7]: 2.0 (2–4.3) h | AUCτ GLSM ratio fed:fasted [4, 8]: 0.89 | Cmax GLSM ratio fed:fasted [4, 8]: 0.67 | Dose proportionality of plasma exposure ([5]; dose range 80–800 mg): approximately dose proportional | Dose excreted in urine as unchanged drug ([5]; patients): less than 10% | Terminal half life ([5]; patients): approximately 10 h
